By MTD is commonly meant the largest dose that counted as tolerated.

The nature of data set [1]: Toxicity in SCID mouse xenografted with human PDX27454 cells assessed as body weight loss at 8 mg/kg,po administrated once per week for 3 weeks. In kind it is organism-based. Conditions: in vivo, 504 h. A general note: In xenograft studies the graft and the host belong to different species.
Data set [2] can be described thus: Toxicity in SCID mouse xenografted with human PDX27454 cells assessed as animal death at 10 mg/kg,ip administrated once per week for 4 weeks. In kind it is organism-based. Particulars: in vivo, 672 h.
Data set [3] deals with PDX27454. Description: Antitumor activity against human PDX27454 cells xenografted in SCID mouse model assessed as reduction in tumor growth at 3 to 7 mg/kg,po administrated once per week for 4 weeks. Format: functional, organism-based. Conditions: dose 3-7 mg/kg.
The subject of data set [4] is PDX27454. Kind of data set: Antitumor activity against human PDX27454 cells xenografted in SCID mouse model assessed as reduction in tumor growth at 2.5 to 10 mg/kg,ip administrated once per week for 4 weeks. In kind it is functional, organism-based. Particulars: dose 2.5-10 mg/kg.
Data set [5] relates to HCT-116. Description: Induction of apoptosis in human HCT-116 cells assessed as downregulation of ADK gene expression at 10 to 500 nM incubated for 6 to 48 hrs by RNA analysis. Format: functional, cell-based. Conditions: dose 10-500 nM, time 6-48 hrs.
Data set [6] can be described thus: Toxicity in SCID mouse assessed as maximum tolerated dose at po administration. Format: organism-based. Conditions: in vivo.
The subject of data set [7] is HCT-116. Description: Induction of apoptosis in human HCT-116 cells assessed as upregulation of Bax protein expression incubated for 48 hrs by Western blotting analysis. Format: functional, cell-based. For orientation: Immunoblotting shows a protein as a band on a membrane.
Data set [8] has as its system HCT-116. Description: Induction of apoptosis in human HCT-116 cells assessed as early apoptotic cells at 2.5 nM incubated for 48 hrs by Annexin V-FITC/PI staining based flow cytometry assay. In kind it is functional. Background: A flow cytometer gives signals particle by particle.
Data set [9] has as its system HCT-116. Description: Induction of cell cycle arrest in human HCT-116 cells assessed as accumulation of cells at S phase at 2.5 to 10 nM incubated for 48 hrs by Annexin V-FITC/PI staining based flow cytometry assay. Particulars: dose 2.5-10 nM. In kind it is functional.
The test system of data set [10] is HCT-116. Description: Induction of apoptosis in human HCT-116 cells assessed as downregulation of Bcl-2 protein expression incubated for 48 hrs by Western blotting analysis. In kind it is functional, cell-based.
Data set [11] concerns HCT-116. Description: Induction of apoptosis in human HCT-116 cells assessed as increase in caspase-3 activity incubated for 48 hrs by BCA protein assay. In kind it is functional, cell-based.
Data set [12] in a line: Toxicity in SCID mouse xenografted with human PDX27454 cells assessed as body weight loss at 10 mg/kg,po administrated once per week for 4 weeks. Format: organism-based. Conditions: in vivo, 672 h.
Data set [13] is described as follows: Toxicity in SCID mouse xenografted with human PDX27454 cells assessed as body weight loss at 15 mg/kg,po administrated once per week for 4 weeks. In kind it is organism-based. Particulars: in vivo, 672 h.
Data set [14] can be described thus: Toxicity in SCID mouse xenografted with human PDX27454 cells assessed as body weight loss at 10 mg/kg,ip administrated once per week for 4 weeks. Format: organism-based. Conditions: in vivo, 672 h.
Data set [15] is described as follows: Toxicity in SCID mouse xenografted with human PDX27454 cells assessed as body weight loss at 15 mg/kg,ip administrated once per week for 4 weeks. In kind it is organism-based. Conditions: in vivo, 672 h.

Calls of active or inactive are those of the source. No cut-off for these calls is given here.

For `CC[C@@]1(O)C(=O)OCc2c1cc1n(c2=O)Cc2c-1nc1cc3c(cc1c2-c1ccc(OC)cc1)OCO3`, the Activity in data set [1] was 20%; in [2] it was “Toxic”. Besides, the result with PDX27454 [3] and in the data set with PDX27454 [4] was Active.

As for `CC[C@@]1(O)C(=O)OCc2c1cc1n(c2=O)Cc2cc3cc4c(cc3nc2-1)OCO4`, the result in the data set with HCT-116 [5] was Active. Besides, the maximal tolerated dose (MTD) in data set [6] was 10 mg/kg.

In the case of `CC[C@@]1(O)C(=O)OCc2c1cc1n(c2=O)Cc2c-1nc1cc3c(cc1c2-c1cc(OC)cc(OC)c1)OCO3`, the Activity result in the data set on HCT-116 [7] is “Dose-Dependent Effect”; with HCT-116 [8] it was 20.76%; with HCT-116 [10], “Dose-Dependent Effect”; with HCT-116 [11], “Dose-Dependent Effect”. In addition, the result in the data set on HCT-116 [9] was Active.

In the case of `CCc1ccc(-c2c3c(nc4cc5c(cc24)OCO5)-c2cc4c(c(=O)n2C3)COC(=O)[C@]4(O)CC)cc1`, the Activity entry in [12] is “Toxic”; in data set [13], “Toxic”; in data set [14], “Non-Toxic”; in [15], “Non-Toxic”.
